Data: the NIST ThermoML archive (doi:10.1016/j.jct.2011.06.012)

Assay: xn = mol fraction of the nth substance listed
Conditions: Liquid, Bellows volumetry

CC(C)C [2-methylpropane] + O=C=O
mass density [kg/m3]
Conditions | 280 K | 300 K | 320 K | 340 K | 360 K | 380 K | 400 K | 420 K | 440 K
3000 kPa, x2 = 0.2482 | 611.63 | – | – | – | – | – | – | – | –
3000 kPa, x2 = 0.4718 | 651.84 | – | – | – | – | – | – | – | –
5000 kPa, x2 = 0.2482 | 615.96 | – | 552.16 | – | – | – | – | – | –
5000 kPa, x2 = 0.4718 | 658.57 | 614.91 | 560.46 | – | – | – | – | – | –
5000 kPa, x2 = 0.7506 | 741.3 | – | – | – | – | – | – | – | –
10000 kPa, x2 = 0.2482 | 625.46 | – | 569.21 | – | 501.22 | – | 408.28 | – | –
10000 kPa, x2 = 0.4718 | 672.04 | 634.66 | 592.64 | 543.45 | 481.3 | – | – | – | –
10000 kPa, x2 = 0.7506 | 765.85 | – | 614.39 | – | – | – | – | – | –
20000 kPa, x2 = 0.2482 | 641.52 | – | 593.88 | – | 542.86 | – | 486.62 | – | 428.1
20000 kPa, x2 = 0.4718 | 693.75 | 662.67 | 630.32 | 596.56 | 560.5 | 521.68 | 481.65 | 441.54 | 402.95
20000 kPa, x2 = 0.7506 | 800.45 | – | 697.56 | – | 574.95 | – | – | – | –
30000 kPa, x2 = 0.2482 | 655.06 | – | 611.98 | – | 568.79 | – | 523.46 | – | 479.05
30000 kPa, x2 = 0.4718 | 710.92 | 683.38 | 655.66 | 627.77 | 598.86 | 568.93 | 539.19 | 509.95 | 481.23
30000 kPa, x2 = 0.7506 | 826.02 | – | 740.51 | – | 649.75 | – | 557.06 | – | 473.55
40000 kPa, x2 = 0.2482 | 665.95 | – | 627.15 | – | 588.52 | – | 548.72 | – | 511.07
40000 kPa, x2 = 0.4718 | 725.26 | 700.1 | 675.36 | 650.8 | 625.7 | 600.05 | 574.86 | 550.57 | 526.82
40000 kPa, x2 = 0.7506 | 846.38 | – | 771.26 | – | 694.72 | – | 618.58 | – | 548.5
50000 kPa, x2 = 0.2482 | 676.07 | – | 639.69 | – | 604.55 | – | 568.35 | – | 534.44
50000 kPa, x2 = 0.4718 | 737.44 | 714.21 | 691.66 | 669.07 | 646.76 | 623.65 | 601.24 | 579.87 | 559.05
50000 kPa, x2 = 0.7506 | 863.38 | – | 795.16 | – | 727.44 | – | 660.8 | – | 599.76
60000 kPa, x2 = 0.2482 | 684.83 | – | 650.61 | – | 617.73 | – | 584.33 | – | 553.6
60000 kPa, x2 = 0.4718 | 748.54 | 726.58 | 705.67 | 684.42 | 664.02 | 642.83 | 622.39 | 602.9 | 584.01
60000 kPa, x2 = 0.7506 | 878.75 | – | 815.43 | – | 753.47 | – | 693.37 | – | 637.87
70000 kPa, x2 = 0.2482 | 693.01 | – | 660.32 | – | 629.43 | – | 598.36 | – | 569.47
70000 kPa, x2 = 0.4718 | 758.63 | 737.54 | 717.84 | 697.86 | 678.79 | 658.77 | 640.1 | 622.11 | 604.56
70000 kPa, x2 = 0.7506 | 892.04 | – | 832.58 | – | 775.21 | – | 719.26 | – | 668.37
80000 kPa, x2 = 0.2482 | 700.46 | – | 669.23 | – | 639.78 | – | 610.26 | – | 583.24
80000 kPa, x2 = 0.4718 | 767.66 | 747.72 | 728.73 | 709.95 | 691.87 | 672.89 | 655.36 | 638.65 | 622.24
80000 kPa, x2 = 0.7506 | 904.12 | – | 847.76 | – | 793.79 | – | 741.54 | – | 694.04
90000 kPa, x2 = 0.2482 | 707.4 | – | 677.43 | – | 649.26 | – | 620.93 | – | 595.28
90000 kPa, x2 = 0.4718 | 775.73 | 756.68 | 738.7 | 720.77 | 703.51 | 685.61 | 668.68 | 652.88 | 637.3
90000 kPa, x2 = 0.7506 | 915.3 | – | 861.33 | – | 810.34 | – | 760.76 | – | 716.21
100000 kPa, x2 = 0.2482 | 713.94 | – | 685.01 | – | 658 | – | 630.87 | – | 606.31
100000 kPa, x2 = 0.4718 | 783.73 | 764.82 | 748.11 | 730.63 | 714.09 | 697.01 | 680.77 | 665.6 | 650.87
100000 kPa, x2 = 0.7506 | 925.43 | – | 873.81 | – | 825.34 | – | 778 | – | 735.56
120000 kPa, x2 = 0.2482 | 725.79 | – | 698.63 | – | 673.4 | – | 647.91 | – | 625.43
120000 kPa, x2 = 0.4718 | 797.65 | 780.34 | 764.51 | 748.22 | 733.04 | 716.82 | 701.98 | 688.04 | 674.34
120000 kPa, x2 = 0.7506 | 944.22 | – | 895.88 | – | 851.1 | – | 807.55 | – | 768.56
140000 kPa, x2 = 0.2482 | 736.43 | – | 710.75 | – | 686.88 | – | 662.89 | – | 641.8
140000 kPa, x2 = 0.4718 | 810.05 | 794.03 | 778.96 | 764.19 | 749.43 | 734.35 | 720.03 | 707.29 | 694.6
140000 kPa, x2 = 0.7506 | 960.61 | – | 915.09 | – | 872.92 | – | 832.23 | – | 796.08
160000 kPa, x2 = 0.2482 | 746.22 | – | 721.58 | – | 699.29 | – | 675.97 | – | 656.01
160000 kPa, x2 = 0.4718 | 821.36 | 805.98 | 791.76 | 777.55 | 763.95 | 749.48 | 735.72 | 723.63 | 711.68
160000 kPa, x2 = 0.7506 | 975.64 | – | 932.24 | – | 892.29 | – | 854.07 | – | 819.85
180000 kPa, x2 = 0.2482 | 755.07 | – | 731.49 | – | 710.13 | – | 687.97 | – | 668.66
180000 kPa, x2 = 0.4718 | 831.97 | 817 | 803.87 | 790.06 | 777.13 | 763.2 | 749.97 | 738.5 | 726.86
180000 kPa, x2 = 0.7506 | 989.13 | – | 947.81 | – | 909.66 | – | 873.25 | – | 840.83
200000 kPa, x2 = 0.2482 | 763.28 | – | 740.45 | – | 720.21 | – | 698.66 | – | 680.35
200000 kPa, x2 = 0.4718 | 841.63 | 827.43 | 814.43 | 801.25 | 789.12 | 775.73 | 763.13 | 752.04 | 741.37
200000 kPa, x2 = 0.7506 | 1001.91 | – | 962.05 | – | 925.27 | – | 890.48 | – | 859.57
